Experimental data as given in patent US20250230193A1, “CYCLIC COMPOUND HAVING SELECTIVE KRAS INHIBITORY EFFECT ON HRAS AND NRAS” (CHUGAI SEIYAKU KABUSHIKI KAISHA, priority 2022, published 2025).

What was measured:
[1] = biological target: GDP-bound NRAS wild-type protein (Homo sapiens, UniProt P01111); assay: Binding to NRAS by surface plasmon resonance (SPR), Single Cycle Kinetics; conditions: KD ratio NRAS/KRAS, SPR
[2] = biological target: GDP-bound HRAS wild-type protein (Homo sapiens, UniProt P01112); assay: Binding to HRAS by surface plasmon resonance (SPR), Single Cycle Kinetics; conditions: KD ratio HRAS/KRAS, SPR
Chain of GDP-bound HRAS wild-type protein (P01112 whole entry): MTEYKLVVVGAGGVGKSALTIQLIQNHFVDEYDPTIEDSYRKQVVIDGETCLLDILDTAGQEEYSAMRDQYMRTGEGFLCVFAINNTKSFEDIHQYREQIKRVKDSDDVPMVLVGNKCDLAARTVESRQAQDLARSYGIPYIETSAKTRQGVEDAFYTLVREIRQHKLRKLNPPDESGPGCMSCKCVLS

Chain of GDP-bound NRAS wild-type protein (P01111 whole entry): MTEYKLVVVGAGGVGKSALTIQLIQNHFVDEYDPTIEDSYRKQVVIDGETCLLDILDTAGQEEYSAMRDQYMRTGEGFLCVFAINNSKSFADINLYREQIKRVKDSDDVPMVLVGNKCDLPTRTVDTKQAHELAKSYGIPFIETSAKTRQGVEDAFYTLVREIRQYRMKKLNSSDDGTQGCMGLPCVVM

Structure (SMILES)	NRAS/KRAS (ratio of KD value with respect to GDP-bound NRAS wild-type protein to KD value with respect to KRAS) [1]	HRAS/KRAS (ratio of KD value with respect to GDP-bound HRAS wild-type protein to KD value with respect to KRAS) [2]
CCO[C@@H]1C[C@H]2C(=O)NC3(CCC3)C(=O)N(C)[C@@H](C3CCCC3)C(=O)N(C)[C@H](C(=O)N(C)C)CC(=O)N(C)[C@@H](CCOC)C(=O)N[C@@H]([C@@H](C)CC)C(=O)N(C)CC(=O)N(C)[C@H]3CCCCCN(C3=O)[C@@H](Cc3ccc(C(F)(F)F)cc3)C(=O)N(C)CC(=O)N[C@@H](CCc3cc(F)c(C(F)(F)F)c(F)c3)C(=O)N2C1 [PP0675]	B (a compound having 3 or more and less than 10 is denoted as B)	B (a compound having 3 or more and less than 10 is denoted as B)
CCO[C@@H]1C[C@H]2C(=O)NC3(CCC3)C(=O)N(C)[C@@H](C3CCCC3)C(=O)N(C)[C@H](C(=O)N3CCOCC3)CC(=O)N(C)[C@@H](CC)C(=O)N[C@@H]([C@@H](C)CC)C(=O)N(C)CC(=O)N(C)[C@H]3CCCCCN(C3=O)[C@@H](Cc3ccc(C(F)(F)F)cc3)C(=O)N(C)CC(=O)N[C@@H](CCc3cc(F)c(C(F)(F)F)c(F)c3)C(=O)N2C1 [PP0678]	B (a compound having 3 or more and less than 10 is denoted as B)	B (a compound having 3 or more and less than 10 is denoted as B)
CCC[C@H]1C(=O)N[C@@H]([C@@H](C)CC)C(=O)N(C)CC(=O)N(C)[C@H]2CCCCCN(C2=O)[C@@H](Cc2ccc(C(F)(F)F)cc2)C(=O)N(C)CC(=O)N[C@@H](CCc2cc(F)c(C(F)(F)F)c(F)c2)C(=O)N2C[C@H](OCC)C[C@H]2C(=O)NC2(CCC2)C(=O)N(C)[C@@H](C2CCCC2)C(=O)N(C)[C@H](C(=O)N2CCOCC2)CC(=O)N1C [PP0679]	B (a compound having 3 or more and less than 10 is denoted as B)	B (a compound having 3 or more and less than 10 is denoted as B)
C#CC[C@H]1C(=O)N[C@@H]([C@@H](C)CC)C(=O)N(C)CC(=O)N(C)[C@H]2CCCCCN(C2=O)[C@@H](Cc2ccc(C(F)(F)F)cc2)C(=O)N(C)CC(=O)N[C@@H](CCc2cc(F)c(C(F)(F)F)c(F)c2)C(=O)N2C[C@H](OCC)C[C@H]2C(=O)NC2(CCC2)C(=O)N(C)[C@@H](C2CCCC2)C(=O)N(C)[C@H](C(=O)N2CCOCC2)CC(=O)N1C [PP0681]	B (a compound having 3 or more and less than 10 is denoted as B)	B (a compound having 3 or more and less than 10 is denoted as B)
CCO[C@@H]1C[C@H]2C(=O)NC3(CCC3)C(=O)N(C)[C@@H](C3CCCC3)C(=O)N(C)[C@H](C(=O)N3CCOCC3)CC(=O)N(C)[C@@H](CC3CC3)C(=O)N[C@@H]([C@@H](C)CC)C(=O)N(C)CC(=O)N(C)[C@H]3CCCCCN(C3=O)[C@@H](Cc3ccc(C(F)(F)F)cc3)C(=O)N(C)CC(=O)N[C@@H](CCc3cc(F)c(C(F)(F)F)c(F)c3)C(=O)N2C1 [PP0682]	B (a compound having 3 or more and less than 10 is denoted as B)	B (a compound having 3 or more and less than 10 is denoted as B)
CCO[C@@H]1C[C@H]2C(=O)NC3(CCC3)C(=O)N(C)[C@@H](C3CCCC3)C(=O)N(C)[C@H](C(=O)N3CCOCC3)CC(=O)N(C)[C@@H](CC3CCC3)C(=O)N[C@@H]([C@@H](C)CC)C(=O)N(C)CC(=O)N(C)[C@H]3CCCCCN(C3=O)[C@@H](Cc3ccc(C(F)(F)F)cc3)C(=O)N(C)CC(=O)N[C@@H](CCc3cc(F)c(C(F)(F)F)c(F)c3)C(=O)N2C1 [PP0683]	B (a compound having 3 or more and less than 10 is denoted as B)	B (a compound having 3 or more and less than 10 is denoted as B)
CCO[C@@H]1C[C@H]2C(=O)NC3(CCC3)C(=O)N(C)[C@@H](C3CCCC3)C(=O)N(C)[C@H](C(=O)N3CCOCC3)CC(=O)N(C)[C@@H](CC(C)(C)C)C(=O)N[C@@H]([C@@H](C)CC)C(=O)N(C)CC(=O)N(C)[C@H]3CCCCCN(C3=O)[C@@H](Cc3ccc(C(F)(F)F)cc3)C(=O)N(C)CC(=O)N[C@@H](CCc3cc(F)c(C(F)(F)F)c(F)c3)C(=O)N2C1 [PP0684]	B (a compound having 3 or more and less than 10 is denoted as B)	B (a compound having 3 or more and less than 10 is denoted as B)
CCO[C@@H]1C[C@H]2C(=O)NC3(CCC3)C(=O)N(C)[C@@H](C3CCCC3)C(=O)N(C)[C@H](C(=O)N3CCOCC3)CC(=O)N(C)[C@@H](CC3CCCC3)C(=O)N[C@@H]([C@@H](C)CC)C(=O)N(C)CC(=O)N(C)[C@H]3CCCCCN(C3=O)[C@@H](Cc3ccc(C(F)(F)F)cc3)C(=O)N(C)CC(=O)N[C@@H](CCc3cc(F)c(C(F)(F)F)c(F)c3)C(=O)N2C1 [PP0685]	B (a compound having 3 or more and less than 10 is denoted as B)	B (a compound having 3 or more and less than 10 is denoted as B)
CCO[C@@H]1C[C@H]2C(=O)NC3(CCC3)C(=O)N(C)[C@@H](C3CCCC3)C(=O)N(C)[C@H](C(=O)N3CCOCC3)CC(=O)N(C)[C@@H](CC3CCCCC3)C(=O)N[C@@H]([C@@H](C)CC)C(=O)N(C)CC(=O)N(C)[C@H]3CCCCCN(C3=O)[C@@H](Cc3ccc(C(F)(F)F)cc3)C(=O)N(C)CC(=O)N[C@@H](CCc3cc(F)c(C(F)(F)F)c(F)c3)C(=O)N2C1 [PP0686]	B (a compound having 3 or more and less than 10 is denoted as B)	B (a compound having 3 or more and less than 10 is denoted as B)
CCO[C@@H]1C[C@H]2C(=O)NC3(CCC3)C(=O)N(C)[C@@H](C3CCCC3)C(=O)N(C)[C@H](C(=O)N3CCOCC3)CC(=O)N(C)[C@@H](Cc3ccccc3)C(=O)N[C@@H]([C@@H](C)CC)C(=O)N(C)CC(=O)N(C)[C@H]3CCCCCN(C3=O)[C@@H](Cc3ccc(C(F)(F)F)cc3)C(=O)N(C)CC(=O)N[C@@H](CCc3cc(F)c(C(F)(F)F)c(F)c3)C(=O)N2C1 [PP0687]	B (a compound having 3 or more and less than 10 is denoted as B)	B (a compound having 3 or more and less than 10 is denoted as B)
CCO[C@@H]1C[C@H]2C(=O)NC3(CCC3)C(=O)N(C)[C@@H](C3CCCC3)C(=O)N(C)[C@H](C(=O)N3CCOCC3)CC(=O)N(C)[C@@H](COC)C(=O)N[C@@H]([C@@H](C)CC)C(=O)N(C)CC(=O)N(C)[C@H]3CCCCCN(C3=O)[C@@H](Cc3ccc(C(F)(F)F)cc3)C(=O)N(C)CC(=O)N[C@@H](CCc3cc(F)c(C(F)(F)F)c(F)c3)C(=O)N2C1 [PP0689]	B (a compound having 3 or more and less than 10 is denoted as B)	B (a compound having 3 or more and less than 10 is denoted as B)
CCO[C@@H]1C[C@H]2C(=O)NC3(CCC3)C(=O)N(C)[C@@H](C3CCCC3)C(=O)N(C)[C@H](C(=O)N3CCOCC3)CC(=O)N(C)[C@@H](CCOC)C(=O)N[C@@H]([C@@H](C)CC)C(=O)N(C)CC(=O)N(C)[C@H]3CCCCCN(C3=O)[C@@H](Cc3ccc(C(F)(F)F)cc3)C(=O)N(C)CC(=O)N[C@@H](CCc3cc(F)c(C(F)(F)F)c(F)c3)C(=O)N2C1 [PP0690]	B (a compound having 3 or more and less than 10 is denoted as B)	B (a compound having 3 or more and less than 10 is denoted as B)
CCO[C@@H]1C[C@H]2C(=O)NC3(CCC3)C(=O)N(C)[C@@H](C3CCCC3)C(=O)N(C)[C@H](C(=O)N(C)C)CC(=O)N(C)[C@@H](CC)C(=O)N[C@@H]([C@@H](C)CC)C(=O)N(C)CC(=O)N(C)[C@H]3CCCCN(C3=O)[C@@H](Cc3ccc(C(F)(F)F)cc3)C(=O)N(C)CC(=O)N[C@@H](CCc3cc(F)c(C(F)(F)F)c(F)c3)C(=O)N2C1 [PP0693]	C (A compound having a KD ratio of 0.1 or more and less than 3 is denoted as C)	C (A compound having a KD ratio of 0.1 or more and less than 3 is denoted as C)
CCC[C@H]1C(=O)N[C@@H]([C@@H](C)CC)C(=O)N(C)CC(=O)N(C)[C@H]2CCCCN(C2=O)[C@@H](Cc2ccc(C(F)(F)F)cc2)C(=O)N(C)CC(=O)N[C@@H](CCc2cc(F)c(C(F)(F)F)c(F)c2)C(=O)N2C[C@H](OCC)C[C@H]2C(=O)NC2(CCC2)C(=O)N(C)[C@@H](C2CCCC2)C(=O)N(C)[C@H](C(=O)N(C)C)CC(=O)N1C [PP0694]	C (A compound having a KD ratio of 0.1 or more and less than 3 is denoted as C)	C (A compound having a KD ratio of 0.1 or more and less than 3 is denoted as C)
C=CC[C@H]1C(=O)N[C@@H]([C@@H](C)CC)C(=O)N(C)CC(=O)N(C)[C@H]2CCCCN(C2=O)[C@@H](Cc2ccc(C(F)(F)F)cc2)C(=O)N(C)CC(=O)N[C@@H](CCc2cc(F)c(C(F)(F)F)c(F)c2)C(=O)N2C[C@H](OCC)C[C@H]2C(=O)NC2(CCC2)C(=O)N(C)[C@@H](C2CCCC2)C(=O)N(C)[C@H](C(=O)N(C)C)CC(=O)N1C [PP0695]	C (A compound having a KD ratio of 0.1 or more and less than 3 is denoted as C)	C (A compound having a KD ratio of 0.1 or more and less than 3 is denoted as C)
